What all share (assay type): biochemical
In test [1] the target is T1, GST-GK(p.Ala449Thr) (Homo sapiens, UniProt P35557, A449T).
T1 construct: made in house; host or cells: E. coli
T1 sequence (P35557 1-465 A449T): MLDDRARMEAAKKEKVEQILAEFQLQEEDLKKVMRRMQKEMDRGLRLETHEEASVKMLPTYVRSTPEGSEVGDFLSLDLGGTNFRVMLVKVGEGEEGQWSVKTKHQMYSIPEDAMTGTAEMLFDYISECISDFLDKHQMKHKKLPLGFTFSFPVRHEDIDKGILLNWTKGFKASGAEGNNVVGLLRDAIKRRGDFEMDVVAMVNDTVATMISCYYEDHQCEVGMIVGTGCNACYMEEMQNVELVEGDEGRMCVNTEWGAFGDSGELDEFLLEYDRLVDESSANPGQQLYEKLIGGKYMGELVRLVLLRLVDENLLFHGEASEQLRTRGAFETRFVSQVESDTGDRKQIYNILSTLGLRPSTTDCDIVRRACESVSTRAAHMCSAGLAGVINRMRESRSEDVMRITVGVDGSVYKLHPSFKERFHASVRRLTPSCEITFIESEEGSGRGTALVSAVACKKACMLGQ
Nature of the test: Inhibition of glucokinase activity by NAG and MH, Dixon plots. As to conditions: for IC50: glucose 1, 1.5 and 2 mM, 180 nM protein. How it is done:
(§1) Glucokinase activity was measured spectrophotometrically on a spectrophotometer Uviconxl (Secoman), using an NADP^+-coupled assay with glucose-6-phosphate dehydrogenase, as described previously. The final reaction mixture contained 100 mM Tris pH 7.4, 150 mM KCl, 1 mM MgCl2, 1.4 mM ß-mercaptoethanol, 0.1% BSA, 5 mM ATP-MgCl2, 1 mM NADP^+, and 1 U/ml glucose-6-phosphate dehydrogenase. Determination of kinetic parameters and thermal stability tests were performed as in [20]. […] Inhibition by NAG and MH was determined under standard assay conditions with 50 nM glucokinase. The inhibition by palmitoylCoA was determined in reaction mixtures containing 25 mM Hepes pH 7.1; 25 mM KCl; 1 mM NADP, 1 mM ATP-MgCl2; 2.5 mM MgCl2; 5 mM ß-mercaptoethanol, 1 U/ml glucose-6-phosphate dehydrogenase and 61 nM glucokinase. Due to the low Kcat value of mutant GST-GK(pAla449Thr), the amount of protein used in inhibition assays was 180 nM to get sufficient activity to allow for accurate determination of the inhibitor effect. In these conditions, GK activity (U/mg of GST-GK(pAla449Thr)) in the absence of inhibitors was 1.3±0.08, 1.1±0.06 and 0.9±0.05 at 2, 1.5 and 1 mM of glucose, respectively for NAG and MH assays and 0.5±0.05, 0.33±0.03 and 0.27±0.03 at 2, 1.5 and 1 mM glucose, respectively for palmitoyl-CoA assay.

The next test addresses T2, GST-GK(p.Gly223Ser) (Homo sapiens, UniProt P35557, G223S).
T2 construct: made in house; host or cells: E. coli
T2 sequence (P35557 1-465 G223S): T1 sequence (P35557 1-465 A449T) with G223S, T449A
Described as above. Particulars: glucose 12.5, 25 and 50 mM. How it is done:
as §1

The target of test [2] is T3, Wild-type GST-GK (Homo sapiens, UniProt P35557).
T3 construct: made in house; host or cells: E. coli
T3 sequence (P35557 1-465): T1 sequence (P35557 1-465 A449T) with T449A
Described as above. Particulars: glucose 2, 5 and 8 mM, 50 nM glucokinase. Here is the method: as §1

For test [3], the target named is T1, GST-GK(p.Ala449Thr). Nature of the test: Effect of GK synthetic activator on kinetic parameters. How it is done:
as §1
(§2) GK activator LY2121260 was kindly provided by Elli Lilly and Co, Indianapolis, IN, USA. A stock solution of 1 mM LY2121260 was prepared in 12.5 mM Hepes pH 7.4 with 80% DMSO. Results are shown as means ± SEM, and statistical significance was analysed by the two-tailed Student's t-test. P values of <0.05 were considered statistically significant. The structural analysis of mutations was carried out using the crystal structure of human GK [18] and visualized using the Pymol Molecular Graphics System (Schrödinger).

The target of test [4] is T3, Wild-type GST-GK. The test is described as above. Here is the method: as §1, §2
Test [5] deals with human beta-cell glucokinase. The test is described as follows: Kinetic analysis of recombinant GST-GK fusion proteins (NADP+-coupled assay with glucose-6-phosphate dehydrogenase). Particulars: for S0.5 for glucose: means ± SEM; for overall activity, % of the wild-type protein: reflected in the relative activity index; for nH (Hill coefficient): unit less.
Procedure: The expression and purification of fusion proteins from E. coli was performed as described previously [22]. Fusion proteins were stored at a concentration of about 1 mg/ml at −80°C in 30% glycerol, 50 mM glucose, 10 mM glutathione, 5 mM DTT, 200 mM KCl and 50 mM Tris/HCl pH = 8.0. Protein concentrations were determined using the Bio-Rad Protein Assay (Bio-Rad Laboratories, GmbH), with bovine serum albumin as standard.
Glucokinase activity was measured spectrophotometrically on a spectrophotometer Uviconxl (Secoman), using an NADP^+-coupled assay with glucose-6-phosphate dehydrogenase, as described previously [22]. The final reaction mixture contained 100 mM Tris pH 7.4, 150 mM KCl, 1 mM MgCl2, 1.4 mM ß-mercaptoethanol, 0.1% BSA, 5 mM ATP-MgCl2, 1 mM NADP^+, and 1 U/ml glucose-6-phosphate dehydrogenase. Determination of kinetic parameters and thermal stability tests were performed as in [20].
One unit of GK is defined as the amount of enzyme that phosphorylates 1 µmol of glucose per min at 30°C.
Test [6] concerns the target T1, GST-GK(p.Ala449Thr). The test is described as follows: Inhibition of glucokinase activity by human GKRP. As to conditions: 5 mM glucose; GKRP 0 to 200 nM; 10 µM S6P or 0.2 mM F1P. How it is done:
Purified human GKRP was kindly provided by KJ Brocklehurst (Cardiovascular and Gastrointestinal Department, AstraZeneca, Macclesfield, Cheshire SK10 4TG, UK). The effect of GKRP on glucokinase activity was determined as described. The final reaction mixture contained 25 mM Hepes pH 7.1; 25 mM KCl; 1 mM NADP, 1 mM ATP-MgCl2; 2.5 mM MgCl2; 5 mM ß-mercaptoethanol, 1 U/ml glucose-6-phosphate dehydrogenase, 61 nM of GST-GK or 180 nM GST-GK(pAla449Thr), 5 mM glucose, GKRP (0 to 200 nM) and, when indicated, 10 µM sorbitol-6-phosphate (S6P) or 0.2 mM fructose-1-phosphate (F1P). In these conditions, GST-GK(pAla449Thr) activity in the absence of GKRP was 0.8±0.09 U/mg of protein.
Figure 2 Effect of mutation p.Ala449Thr on the GK interaction with GKRP. A) Inhibition of glucokinase activity by human GKRP. Enzyme activity was measured at 5 mM glucose as described in Material and Methods, in the presence of 10 µM S6P (left panel) or 0.2 mM F1P (right panel). Results are means ± SEM for three independent enzyme purifications assayed in triplicate. B) Two-hybrid interaction of GBD-GKRP with GAD-GK or GAD-GK(p.Ala449Thr) mutant. Yeast strain Y187 was used, and fusion proteins were expressed from pGBKT7 and pACTII derivatives. Values are means ± SEM from ß-galactosidase activity of six independent transformants.

Positions count from the first letter of the chain named. Read-outs that look alike come from different tables or passages of the source.

In the case of `CC(=O)N[C@@H]1[C@@H](O)[C@H](O)[C@@H](CO)O[C@H]1O` [NAG, N-acetylglucosamine], the values for the IC50 on GST-GK(p.Ala449Thr) [1] (read-out: I50 for NAG), at GST-GK(p.Gly223Ser) (read-out: I50 for NAG) and on Wild-type GST-GK [2] (read-out: I50 for NAG) were 200 ± 60 µM, 380 ± 45 µM and 210 ± 40 µM, respectively. On GST-GK(p.Ala449Thr) [1] (vs wild type), the “effect of mutation on inhibition by NAG” value is recorded as “did not affect the inhibition”.
As for `CS(=O)(=O)c1ccc([C@@]2(C(=O)Nc3nccs3)C[C@H]2C2CCCCC2)cc1` [LY2121260], the S0.5 for glucose at GST-GK(p.Ala449Thr) [3] (10 µM GK activator, 0.8% DMSO) turned out to be 3.1 ± 0.3 mM. Also, the “effect on S0.5” value at GST-GK(p.Ala449Thr) [3] (10 µM activator) is listed as “did not affect”. Also, the “Kcat (%)” value at Wild-type GST-GK [4] (10 µM GK activator, 0.8% DMSO, wild type with buffer = 100) turned out to be 130.8±3.9 %. In addition, at Wild-type GST-GK [4] (10 µM activator), the “increase of Kcat” value is reported as “about 30%” and the “increase of affinity for glucose” value is reported as “about 5 fold”.
In the case of `O=C(CO)[C@@H](O)[C@@H](O)[C@H](O)[C@H](O)CO` [MH, mannoheptulose], the values for the IC50 at GST-GK(p.Ala449Thr) [1] (read-out: I50 for MH), at GST-GK(p.Gly223Ser) (read-out: I50 for MH) and at Wild-type GST-GK [2] (read-out: I50 for MH) were 670 ± 40 µM, 3550 ± 630 µM and 1150 ± 370 µM, respectively.

B1: GST-GK (p.Ile130Thr): recombinant GST-glucokinase fusion protein with MODY2 mutation p.Ile130Thr (protein, UniProt P35557 1-465, looked up, variant I130T)
Hexokinase-4: T1 sequence (P35557 1-465 A449T) with I130T, T449A
modifications: N-terminal GST fusion
Turning to B1, in test [5], the S0.5 for glucose came to 8.59 ± 0.45 mM; the “overall activity, % of the wild-type protein” value is “lower than 20%”; the “nH (Hill coefficient)” value is 1.01±0.02.

B2: GST-GK (p.Gly223Ser): recombinant GST-glucokinase fusion protein with MODY2 mutation p.Gly223Ser (protein, UniProt P35557 1-465, looked up, variant G223S)
Hexokinase-4: T1 sequence (P35557 1-465 A449T) with G223S, T449A
modifications: N-terminal GST fusion
In the case of B2, in test [5], the S0.5 for glucose is 44.0 ± 3.81 mM; the “overall activity, % of the wild-type protein” value is below 10%; the “nH (Hill coefficient)” value was 1.13±0.01.

B3: GST-GK (p.Asp205His): recombinant GST-glucokinase fusion protein with MODY2 mutation p.Asp205His (protein, UniProt P35557 1-465, looked up, variant D205H)
Hexokinase-4: T1 sequence (P35557 1-465 A449T) with D205H, T449A
modifications: N-terminal GST fusion
With B3, in test [5], the S0.5 for glucose entry was “No activity at all” and the “nH (Hill coefficient)” value is recorded as “No activity at all”.

B4: GKRP: purified human glucokinase regulatory protein, competitive inhibitor with respect to glucose (protein, UniProt Q14397 1-625, looked up)
Glucokinase regulatory protein: MPGTKRFQHVIETPEPGKWELSGYEAAVPITEKSNPLTQDLDKADAENIVRLLGQCDAEIFQEEGQALSTYQRLYSESILTTMVQVAGKVQEVLKEPDGGLVVLSGGGTSGRMAFLMSVSFNQLMKGLGQKPLYTYLIAGGDRSVVASREGTEDSALHGIEELKKVAAGKKRVIVIGISVGLSAPFVAGQMDCCMNNTAVFLPVLVGFNPVSMARNDPIEDWSSTFRQVAERMQKMQEKQKAFVLNPAIGPEGLSGSSRMKGGSATKILLETLLLAAHKTVDQGIAASQRCLLEILRTFERAHQVTYSQSPKIATLMKSVSTSLEKKGHVYLVGWQTLGIIAIMDGVECIHTFGADFRDVRGFLIGDHSDMFNQKAELTNQGPQFTFSQEDFLTSILPSLTEIDTVVFIFTLDDNLTEVQTIVEQVKEKTNHIQALAHSTVGQTLPIPLKKLFPSIISITWPLLFFEYEGNFIQKFQRELSTKWVLNTVSTGAHVLLGKILQNHMLDLRISNSKLFWRALAMLQRFSGQSKARCIESLLRAIHFPQPLSDDIRAAPISCHVQVAHEKEQVIPIALLSLLFRCSITEAQAHLAAAPSVCEAVRSALAGPGQKRTADPLEILEPDVQ
For B4, in the test with GST-GK(p.Ala449Thr) [6], the “enzymatic inhibition by GKRP, mutant vs wild type” value is on record as “the same”.

The values above are taken from article PMC3265476, “Functional Characterization of MODY2 Mutations Highlights the Importance of the Fine-Tuning of Glucokinase and Its Role in Glucose Sensing” (PLoS ONE, 2012).
